“Also recorded” adds a separate entry of the source.
Tests used:
[1] = target: T1, TPH1 (Homo sapiens, UniProt P17752); test: Steady-state kinetic study of TPH1 inhibition; assay type: biochemical
T1 construct: doubly truncated human TPH1 (ΔNH102-ΔCOOH402); made in house; host or cells: E. coli BL21(DE3)
Procedure: Steady-state kinetic studies were performed to explore the mode of inhibition. […] TPH1 and TH activity assays were performed as indicated above in the absence and presence of three different compound concentrations (TPH1: 0–100 μM; TH: 0–25 μM). Product formation was measured either at a fixed concentration of the cofactor BH4 (200 μM) and varying concentrations of L-Trp (0.937–60 μM) or L-Tyr (3.125–50 μM), respectively, or in the presence of varying concentrations of BH4 (TPH1:12.5–400 μM; TH: 7.4–200 μM) and a fixed concentration of amino acid substrates: 30 μM of L-Trp or 50 μM of L-Tyr, respectively. Kinetic parameters were obtained from the Michaelis–Menten model using nonlinear regression fit [drawing 3] where Vmax is the maximum enzyme velocity and Km the Michaelis–Menten constant.
Lineweaver–Burk plots were obtained by plotting the reciprocal of the rate of the enzyme reaction (1/V) versus the reciprocal substrate concentration (1/[S]) in the absence and presence of compounds.

[2] = tested on: PAH; conditions: proteome profiling study; cited from earlier work
[3] = target: TH (Homo sapiens, UniProt P07101); test: Steady-state kinetic study of TH inhibition; assay type: biochemical; conditions: for TH Vmax (µmol/(min*mg)): BH4 7.4 – 200 µM / L-Tyr 50 µM
TH (Homo sapiens, UniProt P07101), sequence (P07101 1-497 isoform P07101-3): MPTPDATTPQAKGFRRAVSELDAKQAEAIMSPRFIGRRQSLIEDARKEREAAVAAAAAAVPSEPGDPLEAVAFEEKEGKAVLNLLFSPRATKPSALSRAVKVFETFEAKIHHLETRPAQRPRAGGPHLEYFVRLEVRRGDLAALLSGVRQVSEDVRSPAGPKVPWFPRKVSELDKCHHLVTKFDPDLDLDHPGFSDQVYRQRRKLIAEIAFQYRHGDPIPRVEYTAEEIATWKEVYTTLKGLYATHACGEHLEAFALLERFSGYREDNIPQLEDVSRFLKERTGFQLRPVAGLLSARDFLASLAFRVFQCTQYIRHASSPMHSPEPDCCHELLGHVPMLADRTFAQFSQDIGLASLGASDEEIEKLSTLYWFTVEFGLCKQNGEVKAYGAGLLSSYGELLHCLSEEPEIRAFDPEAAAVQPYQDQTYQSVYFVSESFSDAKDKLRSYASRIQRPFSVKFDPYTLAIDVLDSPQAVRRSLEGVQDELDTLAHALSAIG
Procedure: Steady-state kinetic studies were performed to explore the mode of inhibition. […] TH: 0-25 μM). […] Kinetic parameters were obtained from the Michaelis-Menten model using nonlinear regression fit [drawing 3] where Vmax is the maximum enzyme velocity and Km the Michaelis-Menten constant. Lineweaver-Burk plots were obtained by plotting the reciprocal of the rate of the enzyme reaction (1/V) versus the reciprocal substrate concentration (1/[S]) in the absence and presence of compounds.

[4] = target: T2, endogenous PAH (Homo sapiens, UniProt P00439); test: Cellular thermal shift assay (CETSA) in HepG2 cells; assay type: cell-based; conditions: 50 μM compound, 1 h, vs DMSO
T2 construct: increased melting temperatures (ΔTm) of endogenous PAH; endogenous in cells; host or cells: HepG2
T2 sequence (P00439 1-452): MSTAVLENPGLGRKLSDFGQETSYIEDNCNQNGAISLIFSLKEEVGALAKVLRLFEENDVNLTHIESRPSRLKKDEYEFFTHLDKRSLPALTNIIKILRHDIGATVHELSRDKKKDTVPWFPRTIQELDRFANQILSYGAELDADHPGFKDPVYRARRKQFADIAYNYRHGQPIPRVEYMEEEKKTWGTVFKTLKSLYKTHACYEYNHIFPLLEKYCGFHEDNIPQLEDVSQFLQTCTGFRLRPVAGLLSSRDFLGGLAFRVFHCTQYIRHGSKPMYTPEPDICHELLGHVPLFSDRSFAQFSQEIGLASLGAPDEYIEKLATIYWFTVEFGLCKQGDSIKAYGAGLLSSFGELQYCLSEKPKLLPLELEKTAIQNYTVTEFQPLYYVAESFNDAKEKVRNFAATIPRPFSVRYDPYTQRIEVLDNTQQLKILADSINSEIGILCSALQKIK
Procedure: Then, cells were washed, harvested using trypsin, and pelleted by centrifugation. The pellet was washed twice with PBS supplemented with complete EDTA-free protease inhibitor cocktail (Roche) and divided into 14 aliquots of 35 μL containing 800,000 cells. Cells were then frozen in liquid nitrogen and thawed at 25 °C three times, and each aliquot was heated to a defined temperature by applying a gradient between 39 °C and 69 °C in a thermocycler (peQSTAR, PeQlab; 16-well gradient, 54 °C ± 15 °C). After 3 min incubation, aliquots were snap frozen in liquid nitrogen and thawed at 25 °C. Cell lysates were centrifuged at 20,000 g (4 °C) for 20 min. Supernatants were mixed with 5x loading buffer, heated to 70 °C for 5 min and analyzed by Western blotting. Chemoluminescence signals were recorded with a FusionSL, Vilber Lourmat (peQlab) and quantified using FusionCapt Advance FX7 16.01c software. Calculation of ΔTm was conducted using the Boltzmann sigmoidal model in GraphPad prism 7.01.
Cell lysates used for Western blot analysis were prepared as described in the Methods section (Cellular Thermal Shift Assay). […] Chemoluminescence signals were recorded with an FusionSL, Vilber Lourmat (peQlab) and quantified using FusionCapt Advance FX7 16.01c software.

[5] = tested on: TH; conditions: proteome profiling study; cited from earlier work
[6] = EG22 5 μM, BH4 12.5–400 μM/L-Trp 30 μM
[7] = EG22 5 μM, L-Trp 0.937–60 μM/BH4 200 μM
[8] = EG22 30 μM, BH4 12.5–400 μM/L-Trp 30 μM
[9] = EG22 30 μM, L-Trp 0.937–60 μM/BH4 200 μM
[10] = EG22 100 μM, BH4 12.5–400 μM/L-Trp 30 μM
[11] = EG22 100 μM, L-Trp 0.937–60 μM/BH4 200 μM

T1 sequence (P17752 102-402): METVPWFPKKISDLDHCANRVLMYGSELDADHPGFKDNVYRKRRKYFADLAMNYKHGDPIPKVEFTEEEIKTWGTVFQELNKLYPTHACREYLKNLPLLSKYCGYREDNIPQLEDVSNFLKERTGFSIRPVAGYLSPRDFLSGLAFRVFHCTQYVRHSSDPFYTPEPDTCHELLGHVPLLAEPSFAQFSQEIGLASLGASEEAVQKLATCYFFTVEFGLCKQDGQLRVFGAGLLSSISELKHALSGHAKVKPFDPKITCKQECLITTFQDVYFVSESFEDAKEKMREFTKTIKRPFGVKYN

For `O=C(NO)c1ccc(Cl)c(C(=O)Nc2ccc(Cl)cc2)c1` [EG22, 4-Chloro-3-(4-chlorophenylcarbamoyl)-N-hydroxybenzamide], the “mode of TPH1 inhibition, varying BH4 and fixed L-Trp” value ([1]; EG22 0–100 μM) was “competitive inhibition; also recorded: mainly competitive”, the “mode of TPH1 inhibition, varying L-Trp and fixed BH4” value ([1]; EG22 0–100 μM) was “apparent mixed/uncompetitive inhibition; also recorded: mixed noncompetitive/uncompetitive” and the Km [1, 6] was 22.3 ± 6.8 µM. The “TPH1 Vmax (μmol/(min·mg))” value [1, 6] was 3.4 ± 0.2 µmol/min/mg, the Km [1, 7] was 11.7 ± 1.1 µM and the “TPH1 Vmax (μmol/(min·mg))” value [1, 7] was 4.4 ± 0.2 µmol/min/mg. The Km [1, 8] was 53.8 ± 11.2 µM, the “TPH1 Vmax (μmol/(min·mg))” value [1, 8] was 3.0 ± 0.2 µmol/min/mg and the Km [1, 9] was 7.5 ± 1.3 µM. The “TPH1 Vmax (μmol/(min·mg))” value [1, 9] was 3.0 ± 0.2 µmol/min/mg, the Km [1, 10] was 76.9 ± 12.5 µM and the “TPH1 Vmax (μmol/(min·mg))” value [1, 10] was 2.8 ± 0.2 µmol/min/mg. For the same compound, the Km [1, 11] was 5.5 ± 0.8 µM and the “TPH1 Vmax (μmol/(min·mg))” value [1, 11] was 2.4 ± 0.1 µmol/min/mg.
For `Cc1[nH]c2ccccc2c1CCNCc1ccc(/C=C/C(=O)NO)cc1` [panobinostat, reference compound], the IC50 [2] is listed as 0.2 µM, the “mode of TH inhibition versus the amino acid substrate” value ([3]; panobinostat) is listed as “mixed noncompetitive/uncompetitive” and the “mode of TH inhibition toward BH4” value ([3]; panobinostat 0–25 μM) is listed as “mixed competitive/noncompetitive inhibition; also recorded: mainly competitive”. For the same compound, the “TH Vmax (µmol/(min*mg))” value ([3]; panobinostat 2.5 µM) was 1.0 ± 0.1 µmol/min/mg, the “TH Vmax (µmol/(min*mg))” value ([3]; panobinostat 10 µM) was 0.32 ± 0.033 µmol/min/mg and the “TH Vmax (µmol/(min*mg))” value ([3]; panobinostat 25 µM) was 0.23 ± 0.029 µmol/min/mg. For the same compound, the ΔTm at 50 µM [4] was 3.7 °C and the IC50 [5] was 3.3 µM.

Source: PMC11587510, “Aromatic Amino Acid Hydroxylases as Off-Targets of Histone Deacetylase Inhibitors” (ACS Chemical Neuroscience, 2024)
